ChEMBL document CHEMBL1201861, “Genomics of Drug Sensitity in Cancer screening data, Wellcome Trust Sanger Institute”

Legend:
Type in all cases: functional, cell-based
KYSE-150 cell line = assay: cells; settings: Homo sapiens;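 note: growth inhibition of human KYSE-150 cells, read out with a cell viability assay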
Description: SANGER: Inhibition of human KYSE-150 cell growth in a cell viability assay.

MKN-28 = assay: cells; settings: Homo sapiens;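 note: cell viability assay read-out, IC50 reflects suppression of growth of human MKN-28 cells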
Description: SANGER: Inhibition of human MKN28 cell growth in a cell viability assay.

HuO9 = assay: cells; settings: Homo sapiens;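 note: growth inhibition of HuO9 cells, read out with a cell viability assay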
Description: SANGER: Inhibition of human HuO9 cell growth in a cell viability assay.

ChaGo-K-1 = assay: cells; settings: Homo sapiens;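 note: growth inhibition of ChaGo-K-1 cells, read out with a cell viability assay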
Description: SANGER: Inhibition of human ChaGo-K-1 cell growth in a cell viability assay.

CAL-39 = assay: cells; settings: Homo sapiens;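 note: cell viability assay measuring growth inhibition of CAL-39 cells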
Description: SANGER: Inhibition of human CAL-39 cell growth in a cell viability assay.

HTC-C3 = assay: cells; settings: Homo sapiens;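 note: inhibition of cell growth, read out with a cell viability assay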
Description: SANGER: Inhibition of human HTC-C3 cell growth in a cell viability assay.

Calu-3 = assay: cells; settings: Homo sapiens;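 note: growth inhibition of human Calu-3 cells, determined with a cell viability assay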
Description: SANGER: Inhibition of human Calu-3 cell growth in a cell viability assay.

U-118-MG = assay: cells; settings: Homo sapiens
Description: SANGER: Inhibition of human U-118-MG cell growth in a cell viability assay.

RMG-I = assay: cells; settings: Homo sapiens;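 note: growth inhibition of human RMG-I cells, read out with a cell viability assay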
Description: SANGER: Inhibition of human RMG-I cell growth in a cell viability assay.

HCT-15 = assay: cells; settings: Homo sapiens;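 note: cell viability readout, IC50 reflecting suppression of HCT-15 cell growth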
Description: SANGER: Inhibition of human HCT-15 cell growth in a cell viability assay.

SK-MEL-30 = assay: cells; settings: Homo sapiens;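 note: growth inhibition of SK-MEL-30 cells, determined with a cell viability assay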
Description: SANGER: Inhibition of human SK-MEL-30 cell growth in a cell viability assay.

HCC1395 = assay: cells; settings: Homo sapiens;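 note: growth inhibition of HCC1395 cells, read out by a cell viability assay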
Description: SANGER: Inhibition of human HCC1395 cell growth in a cell viability assay.

CMK = assay: cells; settings: Homo sapiens;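 note: growth inhibition of CMK cells, read out as cell viability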
Description: SANGER: Inhibition of human CMK cell growth in a cell viability assay.

ECC4 = assay: cells; settings: Homo sapiens;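 note: growth inhibition of ECC4 cells, read out with a cell viability assay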
Description: SANGER: Inhibition of human ECC4 cell growth in a cell viability assay.

MC-IXC = assay: cells; settings: Homo sapiens;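 note: growth inhibition of MC-IXC cells, read out with a cell viability assay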
Description: SANGER: Inhibition of human MC-IXC cell growth in a cell viability assay.

BL-70 = assay: SANGER: Inhibition of human BL-70 cell growth in a cell viability assay.
MES-SA = assay: cells; settings: Homo sapiens;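 note: growth inhibition of human MES-SA cells, read out with a cell viability assay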
Description: SANGER: Inhibition of human MES-SA cell growth in a cell viability assay.

CWR22R = assay: cells; settings: Homo sapiens, 22Rv1;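 note: growth inhibition of 22Rv1 cells, read out with a cell viability assay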
Description: SANGER: Inhibition of human 22RV1 cell growth in a cell viability assay.

NCI-H1651 = assay: cells; settings: Homo sapiens;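 note: Read-out is a cell viability assay, with IC50 expressing inhibition of NCI-H1651 cell growth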
Description: SANGER: Inhibition of human NCI-H1651 cell growth in a cell viability assay.

CAL-51 = assay: cells; settings: Homo sapiens;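 note: human CAL-51 cell line, growth inhibition read out via a cell viability assay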
Description: SANGER: Inhibition of human CAL-51 cell growth in a cell viability assay.

LB996-RCC = assay: cells; settings: Homo sapiens
Description: SANGER: Inhibition of human LB996-RCC cell growth in a cell viability assay.

FTC-133 = assay: cells; settings: Homo sapiens
P12-Ichikawa = assay: cells; settings: Homo sapiens
D-336MG = assay: cells; settings: Homo sapiens
Description: SANGER: Inhibition of human D-336MG cell growth in a cell viability assay.

NCI-H727 = assay: cells; settings: Homo sapiens;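 note: growth inhibition of human NCI-H727 cells, read out with a cell viability assay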
Description: SANGER: Inhibition of human NCI-H727 cell growth in a cell viability assay.

SCC-25 = assay: cells; settings: Homo sapiens;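 note: growth inhibition of SCC-25 cells, measured with a cell viability assay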
Description: SANGER: Inhibition of human SCC-25 cell growth in a cell viability assay.

RL95-2 = assay: cells; settings: Homo sapiens;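 note: RL95-2 growth inhibition determined through a cell viability readout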
Description: SANGER: Inhibition of human RL95-2 cell growth in a cell viability assay.

EW-7 = assay: SANGER: Inhibition of human EW-7 cell growth in a cell viability assay.
SK-OV-3 = assay: cells; settings: Homo sapiens;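 note: growth inhibition of SK-OV-3 human cells, read out with a cell viability assay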
Description: SANGER: Inhibition of human SK-OV-3 cell growth in a cell viability assay.

BFTC-905 = assay: cells; settings: Homo sapiens
Description: SANGER: Inhibition of human BFTC-905 cell growth in a cell viability assay.

HCC1806 = assay: cells; settings: Homo sapiens;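 note: growth inhibition of the cancer cell line, determined with a cell viability assay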
Description: SANGER: Inhibition of human HCC1806 cell growth in a cell viability assay.

BEN = assay: cells; settings: Homo sapiens;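 note: growth inhibition of the BEN cell line, read out with a cell viability assay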
Description: SANGER: Inhibition of human BEN cell growth in a cell viability assay.

M059J = assay: cells; settings: Homo sapiens;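 note: growth inhibition of M059J cells, read out with a cell viability assay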
Description: SANGER: Inhibition of human M059J cell growth in a cell viability assay.

IM-9 = assay: SANGER: Inhibition of human IM-9 cell growth in a cell viability assay.
BCPAP = assay: cells; settings: Homo sapiens;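 note: growth inhibition of BCPAP cells, read out in a cell viability assay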
Description: SANGER: Inhibition of human BCPAP cell growth in a cell viability assay.

MDA-MB-231 = assay: cells; settings: Homo sapiens
Description: SANGER: Inhibition of human MDA-MB-231 cell growth in a cell viability assay.

COR-L23 = assay: cells; settings: Homo sapiens;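 note: cell viability assay measuring how strongly compounds suppress growth of COR-L23 cells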
Description: SANGER: Inhibition of human COR-L23 cell growth in a cell viability assay.

NCI-H2196 = assay: cells; settings: Homo sapiens;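 note: cell viability assay used as the readout of growth inhibition in NCI-H2196 cells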
Description: SANGER: Inhibition of human NCI-H2196 cell growth in a cell viability assay.

T98G = assay: cells; settings: Homo sapiens;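 note: growth inhibition of T98G cells, read out by a cell viability assay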
Description: SANGER: Inhibition of human T98G cell growth in a cell viability assay.

NCI-H2122 = assay: cells; settings: Homo sapiens;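 note: growth inhibition of the cells, read out with a cell viability assay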
Description: SANGER: Inhibition of human NCI-H2122 cell growth in a cell viability assay.

OE33 = assay: cells; settings: Homo sapiens;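 note: growth inhibition of human OE33 cells, measured by a cell viability assay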
Description: SANGER: Inhibition of human OE33 cell growth in a cell viability assay.

NCI-H889 = assay: cells; settings: Homo sapiens;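 note: cell growth inhibition of the cell line, read out with a viability assay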
Description: SANGER: Inhibition of human NCI-H889 cell growth in a cell viability assay.

NCI-H748 = assay: cells; settings: Homo sapiens;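 note: growth inhibition of NCI-H748 cells, measured by a cell viability assay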
Description: SANGER: Inhibition of human NCI-H748 cell growth in a cell viability assay.

RO82-W-1 = assay: cells; settings: Homo sapiens;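 note: growth inhibition of human RO82-W-1 cells, measured with a cell viability assay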
Description: SANGER: Inhibition of human RO82-W-1 cell growth in a cell viability assay.

CAL-54 = assay: cells; settings: Homo sapiens;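 note: growth inhibition of CAL-54 cells, read out by a viability measurement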
Description: SANGER: Inhibition of human CAL-54 cell growth in a cell viability assay.

SW1710 = assay: cells; settings: Homo sapiens;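 note: growth inhibition of SW1710 cells, determined with a cell viability assay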
Description: SANGER: Inhibition of human SW1710 cell growth in a cell viability assay.

HT-29 = assay: cells; settings: Homo sapiens;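 note: growth inhibition of human HT-29 cells, read out by a cell viability assay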
Description: SANGER: Inhibition of human HT-29 cell growth in a cell viability assay.

HN = assay: cells; settings: Homo sapiens
Description: SANGER: Inhibition of human HN cell growth in a cell viability assay.

NCI-H2342 = assay: cells; settings: Homo sapiens;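 note: growth inhibition of the cancer cell line, determined with a cell viability assay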
Description: SANGER: Inhibition of human NCI-H2342 cell growth in a cell viability assay.

DOK = assay: cells; settings: Homo sapiens;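 note: cell viability assay read-out, values reflect inhibition of cell growth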
Description: SANGER: Inhibition of human DOK cell growth in a cell viability assay.

NCI-H520 = assay: cells; settings: Homo sapiens;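 note: growth inhibition of NCI-H520 cells, measured by a cell viability assay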
Description: SANGER: Inhibition of human NCI-H520 cell growth in a cell viability assay.

HuO-3N1 = assay: cells; settings: Homo sapiens;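 note: cell viability readout used to measure how strongly compounds suppress proliferation of human HuO-3N1 cells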
Description: SANGER: Inhibition of human HuO-3N1 cell growth in a cell viability assay.

RCM-1 = assay: cells; settings: Homo sapiens;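 note: growth inhibition of the RCM-1 line, determined with a cell viability readout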
Description: SANGER: Inhibition of human RCM-1 cell growth in a cell viability assay.

NCI-H1417 = assay: cells; settings: Homo sapiens;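 note: human NCI-H1417 cells, growth inhibition determined with a cell viability readout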
Description: SANGER: Inhibition of human NCI-H1417 cell growth in a cell viability assay.

MDA-MB-361 = assay: cells; settings: Homo sapiens
SK-MES-1 = assay: cells; settings: Homo sapiens;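 note: growth inhibition of human SK-MES-1 cells, read out with a cell viability assay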
Description: SANGER: Inhibition of human SK-MES-1 cell growth in a cell viability assay.

SUP-T1 = assay: cells; settings: Homo sapiens;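 note: growth inhibition of human SUP-T1 cells, read out as cell viability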
Description: SANGER: Inhibition of human SUP-T1 cell growth in a cell viability assay.

MHH-CALL-2 = assay: cells; settings: Homo sapiens;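 note: growth inhibition of the cell line, read out in a cell viability assay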
Description: SANGER: Inhibition of human MHH-CALL-2 cell growth in a cell viability assay.

NCI-N87 = assay: cells; settings: Homo sapiens;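 note: growth inhibition of human NCI-N87 cells, read out with a cell viability assay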
Description: SANGER: Inhibition of human NCI-N87 cell growth in a cell viability assay.

HSC-4 = assay: cells; settings: Homo sapiens;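 note: growth inhibition of human HSC-4 cells, read out with a cell viability assay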
Description: SANGER: Inhibition of human HSC-4 cell growth in a cell viability assay.

HEC-1 = assay: cells; settings: Homo sapiens;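 note: growth inhibition of the cell line, read out with a cell viability assay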
Description: SANGER: Inhibition of human HEC-1 cell growth in a cell viability assay.

Structure (SMILES): CC(C)=CC[C@@H](O)C1=CC(=O)c2c(O)ccc(O)c2C1=O [SHIKONIN]
- IC50 (KYSE-150 cell line): 902 nM
- IC50 (MKN-28): 617 nM
- IC50 (HuO9): 1660 nM
- IC50 (ChaGo-K-1): 657 nM
- IC50 (CAL-39): 483 nM
- IC50 (HTC-C3): 542 nM
- IC50 (Calu-3): 1110 nM
- IC50 (U-118-MG): 842 nM
- IC50 (RMG-I): 864 nM
- IC50 (HCT-15): 268 nM
- IC50 (SK-MEL-30): 695 nM
- IC50 (HCC1395): 15700 nM
- IC50 (CMK): 352 nM
- IC50 (ECC4): 1200 nM
- IC50 (MC-IXC): 387 nM
- IC50 (BL-70): 278 nM
- IC50 (MES-SA): 41.3 nM
- IC50 (CWR22R): 4610 nM
- IC50 (NCI-H1651): > 16000 nM
- IC50 (CAL-51): 20.9 nM
- IC50 (LB996-RCC): > 16000 nM
- IC50 (FTC-133): 5740 nM
- IC50 (P12-Ichikawa): 1390 nM
- IC50 (D-336MG): 1750 nM
- IC50 (NCI-H727): 638 nM
- IC50 (SCC-25): 383 nM
- IC50 (RL95-2): 720 nM
- IC50 (EW-7): 1290 nM
- IC50 (SK-OV-3): 1560 nM
- IC50 (BFTC-905): 284 nM
- IC50 (HCC1806): 1270 nM
- IC50 (BEN): 814 nM
- IC50 (M059J): 134 nM
- IC50 (IM-9): 3410 nM
- IC50 (BCPAP): 923 nM
- IC50 (MDA-MB-231): 1020 nM
- IC50 (COR-L23): 301 nM
- IC50 (NCI-H2196): 654 nM
- IC50 (T98G): 1080 nM
- IC50 (NCI-H2122): > 16000 nM
- IC50 (OE33): 1810 nM
- IC50 (NCI-H889): > 16000 nM
- IC50 (NCI-H748): 1780 nM
- IC50 (RO82-W-1): 2840 nM
- IC50 (CAL-54): 1420 nM
- IC50 (SW1710): < 62.5 nM
- IC50 (HT-29): 645 nM
- IC50 (HN): 1370 nM
- IC50 (NCI-H2342): 134 nM
- IC50 (DOK): 5190 nM
- IC50 (NCI-H520): 1350 nM
- IC50 (HuO-3N1): 4430 nM
- IC50 (RCM-1): 2000 nM
- IC50 (NCI-H1417): 816 nM
- IC50 (MDA-MB-361): 1730 nM
- IC50 (SK-MES-1): 6290 nM
- IC50 (SUP-T1): 1820 nM
- IC50 (MHH-CALL-2): 715 nM
- IC50 (NCI-N87): 2940 nM
- IC50 (HSC-4): 2120 nM
- IC50 (HEC-1): 1130 nM

Structure (SMILES): C/C=C(/C)C(=O)O[C@H]1C(C)=C2[C@H]([C@@H]1OC(=O)CCCCCCC)[C@@](C)(OC(C)=O)C[C@H](OC(=O)CCC)[C@@]1(O)[C@H]2OC(=O)[C@@]1(C)O [THAPSIGARGIN]
- IC50 (KYSE-150 cell line): 22.2 nM
- IC50 (MKN-28): 9.79 nM
- IC50 (ChaGo-K-1): 3.29 nM
- IC50 (CAL-39): < 2 nM
- IC50 (HTC-C3): 21.7 nM
- IC50 (Calu-3): > 512 nM
- IC50 (U-118-MG): 31.9 nM
- IC50 (RMG-I): 13.3 nM
- IC50 (HCT-15): 155 nM
- IC50 (SK-MEL-30): 3.24 nM
- IC50 (HCC1395): 3.15 nM
- IC50 (CMK): 33.3 nM
- IC50 (ECC4): > 512 nM
- IC50 (MC-IXC): 37.6 nM
- IC50 (BL-70): 8.82 nM
- IC50 (MES-SA): < 2 nM
- IC50 (CWR22R): 1.17 nM
- IC50 (NCI-H1651): 41.3 nM
- IC50 (CAL-51): 0.971 nM
- IC50 (LB996-RCC): 31.3 nM
- IC50 (FTC-133): > 512 nM
- IC50 (P12-Ichikawa): 24.5 nM
- IC50 (NCI-H727): 8.36 nM
- IC50 (SCC-25): 9.71 nM
- IC50 (EW-7): 6.34 nM
- IC50 (SK-OV-3): 2.64 nM
- IC50 (BFTC-905): 0.662 nM
- IC50 (HCC1806): 2.4 nM
- IC50 (BEN): 13.9 nM
- IC50 (M059J): 10.8 nM
- IC50 (IM-9): > 512 nM
- IC50 (BCPAP): < 2 nM
- IC50 (MDA-MB-231): 0.557 nM
- IC50 (COR-L23): 0.749 nM
- IC50 (NCI-H2196): > 512 nM
- IC50 (T98G): 0.741 nM
- IC50 (NCI-H2122): 4.49 nM
- IC50 (OE33): 46.9 nM
- IC50 (NCI-H889): > 512 nM
- IC50 (NCI-H748): 31.3 nM
- IC50 (RO82-W-1): > 512 nM
- IC50 (CAL-54): > 512 nM
- IC50 (SW1710): < 2 nM
- IC50 (HT-29): 5.4 nM
- IC50 (HN): > 512 nM
- IC50 (NCI-H2342): < 2 nM
- IC50 (DOK): > 512 nM
- IC50 (NCI-H520): < 2 nM
- IC50 (HuO-3N1): 43.2 nM
- IC50 (RCM-1): 122 nM
- IC50 (NCI-H1417): > 512 nM
- IC50 (MDA-MB-361): 4.73 nM
- IC50 (SK-MES-1): < 2 nM
- IC50 (SUP-T1): 54.7 nM
- IC50 (MHH-CALL-2): 468 nM
- IC50 (NCI-N87): > 512 nM
- IC50 (HSC-4): > 512 nM
- IC50 (HEC-1): 40.4 nM
